Laboratory results: US20210008161A1, “METHODS AND COMPOSITIONS FOR IMPROVED HOMOLOGY DIRECTED REPAIR” (CRISPR THERAPEUTICS AG, priority 2019, published 2021)

Tests used:
Format in all cases: cell-based, human
HEK293 T cells [1] = assay: HDR gene-editing at GSD1a locus with ssODN homology donors; settings: for HDR efficiency: 1.25 μM SCR7 or 10 μM RS-1, FIG. 3
Procedure: 2×10^5 cells were edited with 1 μM Cas9 and 1.5 μM gRNA. The cells were transfected with two different ssODNs homology donors: 93-50 (SEQ ID NO: 39) or 25-100 (SEQ ID NO: 40). These two ssODN donors contain homology arms spanning both sides of the double-stranded break induced by the Cas9-guide and facilitate correction of a point mutation in the G6PC gene sequence by HDR. Cells were edited with 100 μM ssODN. The cells were treated with 2.5 μM Nu7441, 1.25 μM SCR7, or 10 μM RS-1 and the effect on HDR efficiency was evaluated.

HEK293 T cells [2] = assay: GFP to BFP fluorescent reporter assay of HDR efficiency (AAVS1 locus)
Procedure: (§1) The effect of DNA PK inhibition by Nu7441 correction of a DSB by the NHEJ pathway (e.g., introduce an indel at the DSB site) or HDR pathway (e.g., introduce a gene mutation encoded by a homology donor at the DSB site) was assessed using the reporter system described in Example 1. In this case gene-editing was evaluated in HEK293 T cells expressing GFP in the AAVS1 locus. To introduce a gene edit that converts GFP to BFP, cells were electroporated with ribonucleoprotein (RNP) comprised of Cas9 and gRNA1 (GFP target sequence identified by SEQ ID NO: 9; sgRNA spacer sequence identified by SEQ ID NO: 10) or gRNA2 (GFP target sequence identified by SEQ ID NO: 11; sgRNA spacer identified by SEQ ID NO: 12) that targets the GFP gene encoded in the AAVS1 locus. The cells were also transfected with ssODNs that encoded the gene correction necessary to convert GFP to BFP and homology arms complimentary to the sequence upstream and downstream of the target gene cut site. The efficiency of HDR repair was determined by measuring the level of cell BFP fluorescence. The efficiency of cutting (indel information) was monitored by TIDE analysis.
Shown in FIGS. 2A-2B is a comparison of HDR editing efficiency for cells treated with Nu7441, SCR7, or RS-1. Shown in FIG. 2A are cells were electroporated with RNP comprising Cas9 and gRNA1 (GFP target sequence shown in SEQ ID NO: 9; sgRNA spacer sequence identified by SEQ ID NO: 10). 2×10^5 cells were edited with 1 μM Cas9 and 1.5 μM gRNA1. The cells were transfected with four different ssODNs. These included ssODN 1067 (SEQ ID NO: 29) and ssODN 1069 (SEQ ID NO: 31) that are complimentary to the DNA strand containing the PAM sequence and ssODN 1068 (SEQ ID NO: 30) and ssODN 1070 (SEQ ID NO: 32) that are complimentary to the DNA strand not containing the PAM sequence. Cells were edited with 100 μM ssODN. A concentrated stock solution of each inhibitor was prepared in DMSO and diluted to a final concentration of 2.5 μM Nu7441, 1.25 μM SCR7, or 10 μM RS-1. HDR efficiency was compared relative to treatment with DMSO alone or to treatment with RNP-only.
Shown in FIG. 2B are cells were electroporated with RNP comprising Cas9 and gRNA2 (GFP target sequence shown in SEQ ID NO: 11; sgRNA spacer sequence shown in SEQ ID NO: 12). The cells were transfected with four different ssODNs. These included ssODN 1061 (SEQ ID NO: 33) and ssODN 1063 (SEQ ID NO: 35) that are complimentary to the DNA strand containing the PAM sequence and ssODN 1062 (SEQ ID NO: 34) and ssODN 1064 (SEQ ID NO: 36) that are complimentary to the DNA strand not containing the PAM sequence.

HEK293 T cells [3] = assay: Gene correction by NHEJ repair at GSD1a locus with dsDNA donors; settings: dsDNA donor 50-0 or 150-0, 2.5 μM Nu7441, 1.25 μM SCR7 or 10 μM RS-1, vs DMSO alone, FIG. 3
Procedure: The effect of Nu7441 treatment on gene correction by the NHEJ pathway was also evaluated. To do so, the cells were transfected with two different dsDNA donors: 50-0 (SEQ ID NO: 37) or 150-0 (SEQ ID NO: 38). Cells were edited with 1.5 μg dsDNA donor. These dsDNA donors, lacking homology arms, introduce a second 3′ splice site into exon 2 at the GSD1a locus when inserted into the cut site induced by the Cas9-guide complex by NHEJ repair. The cells were treated with 2.5 μM Nu7441, 1.25 μM SCR7, or 10 μM RS-1 and gene correction by NHEJ repair was evaluated. […] Treatment with SCR7 or RS-1 had no effect over DMSO alone.

HEK293 T cells [4] = assay: Indel formation at GFP gene in AAVS1 locus by TIDE analysis; settings: regardless of ssODN or gRNA, compared to DMSO control, FIG. 2C-2D
Procedure: as §1
Shown in FIGS. 2C-2D is a measure of indel formation performed by TIDE analysis for the same edits that are described for FIGS. 2A-2B. […] Thus, the DNA PK inhibitor Nu7441 achieves reduced repair of a DSB by the NHEJ pathway when a homology donor is provided.

[5] = gRNA1, ssODN 1067-1070, 2.5 μM Nu7441, 1.25 μM SCR7 or 10 μM RS-1, vs DMSO, FIG. 2A

| Structure (SMILES) | fold increase in HDR efficiency (HEK293 T cells [1]; 2.5 μM Nu7441, over DMSO alone, FIG. 3) | HDR efficiency (HEK293 T cells [2]; [5]) | HDR efficiency (HEK293 T cells [2]; gRNA2, ssODN 1061-1064, 2.5 μM Nu7441) | gene correction by NHEJ repair (HEK293 T cells [3]) | indel formation at the DSB site (HEK293 T cells [4]) | HDR efficiency (HEK293 T cells [1]) |
| --- | --- | --- | --- | --- | --- | --- |
| O=c1cc(N2CCOCC2)oc2c(-c3cccc4c3sc3ccccc34)cccc12 [Nu7441] | approximately 1.7 fold | improved | improved | substantial decrease | decreased | – |
| O=C(Nc1ccc(Br)cc1)c1ccc(Br)c(S(=O)(=O)NCc2ccccc2)c1 [RS-1] | – | no improvement | – | no effect | reduction | no effect |
| O=c1[nH]c(=S)[nH]c(N=Cc2ccccc2)c1N=Cc1ccccc1 [SCR7] | – | no improvement | – | no effect | reduction | no effect |
